Values of other authors in US12357592B2, “Compositions and methods for monitoring the treatment of breast disorders” (priority 2018, dated 2025).

Test system: breast cancer
Conditions: tamoxifen as prevention, given to healthy women; background statement

CC/C(=C(\c1ccccc1)c1ccc(OCCN(C)C)cc1)c1ccccc1 [Tamoxifen, (Z)-2-[4-(1,2-diphenyl-1-butenyl)phenoxy]-N,N-dimethylethanamine]
reduce the risk of breast cancer: ≤ 50%
